Experiments:
[1] = tested on: cucumber powdery mildew fungus (Sphaerotheca fuliginea); assay: Test Example 6 and Comparative Test Example: cucumber powdery mildew control by foliar spray; assay type: in vivo; details: 500 ppm spray on cucumber (SAGAMI HANJIRO); 8 days after inoculation
[2] = tested on: common house mosquito (Culex pipiens pallens); assay: Test Example 12: common house mosquito larvae mortality in treated water; assay type: in vivo; details: active ingredient 3.5 ppm in water; last instar larvae; after 8 days
Description: A water dilution containing a surfactant prepared by adjusting so as to contain a predetermined concentration (500 ppm) of any one compound of the present compounds 20, 29, and 79 was used as a test chemical solution.
The above test chemical solution (0.7 mL) was added to 100 mL of deionized water to adjust the concentration of an active ingredient to 3.5 ppm. Twenty (20) heads of last instar larvae of common house mosquito (Culex pipiens pallens) were released in the solution and the number of dead insects was counted after 8 days.
Mortality was determined by the following equation. Mortality (%)=(number of dead insects/number of test insects)×100

Row | SMILES | area of lesion spots on the treated plant relative to that on an untreated plant [1] | mortality [2]
1 | Cc1ccc(OCc2ccccc2-n2nnn(C)c2=O)cc1 [1-{2-(4-methylphenoxymethyl)phenyl}-4-methyl-1,4-dihydrotetrazol-5-one] | ≥ 70% | –
2 | Cc1cc(OCc2c(C)cccc2-n2nnn(C)c2=O)ccc1-c1ccccc1 [compound 29] | – | 100%
3 | CCN(c1ccccc1)c1ccc(OCc2c(C)cccc2-n2nnn(C)c2=O)c(C)c1 [compound 79] | – | 100%
4 | COc1ccccc1-c1ccc(OCc2c(OC)cccc2-n2nnn(C)c2=O)c(C)c1 [compound 20] | – | 100%
